{"source": "patent US20220409692A1", "about": "“Systems Chemico-Pharmacology Drugs and Methods of Use” (The Medical College of Wisconsin, priority 2019, published 2022)", "key": {"[1]": {"molecular_target": "T1, MPO (Homo sapiens, UniProt P05164)", "T1 sequence (P05164 49-745)": "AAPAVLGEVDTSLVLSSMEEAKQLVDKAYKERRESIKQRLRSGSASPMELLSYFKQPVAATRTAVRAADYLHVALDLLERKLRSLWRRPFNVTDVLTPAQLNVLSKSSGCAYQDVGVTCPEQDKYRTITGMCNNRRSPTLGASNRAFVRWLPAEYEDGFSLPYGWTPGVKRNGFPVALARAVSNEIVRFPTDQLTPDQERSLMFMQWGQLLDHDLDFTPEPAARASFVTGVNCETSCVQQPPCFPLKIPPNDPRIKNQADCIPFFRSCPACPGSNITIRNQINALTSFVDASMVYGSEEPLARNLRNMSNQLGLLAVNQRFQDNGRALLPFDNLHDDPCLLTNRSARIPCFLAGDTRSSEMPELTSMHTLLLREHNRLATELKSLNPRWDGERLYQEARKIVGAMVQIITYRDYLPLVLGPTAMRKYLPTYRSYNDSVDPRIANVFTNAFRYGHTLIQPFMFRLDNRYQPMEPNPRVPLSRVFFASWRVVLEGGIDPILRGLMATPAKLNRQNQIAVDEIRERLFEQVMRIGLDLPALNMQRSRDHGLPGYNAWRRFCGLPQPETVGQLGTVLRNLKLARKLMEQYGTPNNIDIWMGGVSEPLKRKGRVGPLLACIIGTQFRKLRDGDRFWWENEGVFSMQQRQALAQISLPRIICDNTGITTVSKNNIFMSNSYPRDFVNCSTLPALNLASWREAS", "assay": "KYC/AA(n) peptide inhibition of MPO HOCl production (TMB assay) at varied pH", "format": "biochemical", "source_text": "Small peptides of generic formula AA(n) (where AA represents different amino acids, and n can be 2-5) are both substrates and inhibitors of MPO (alternatively, inhibitors of EPO). These peptides are […] at the active site of MPO, which subsequently decreases the production of toxic oxidants that includes but not restricted to hypochlorous acid. All MPO activities (i.e., hypochlorous acid production) described herein were quantified by the 3,3′,5,5′-tetramethylbenzidine (TMB) assay. […] The free radical itself may act as an activated species, and is stable enough to react with proximal proteins, peptides, metabolites or small molecules to effect further change. The free radical is not limited to a single target, but may effect change multiple independent targets. In a non-limiting example, the free radical goes on to form a hetero- or homo dimer via an oxidized —S—S— disulfide (or di-Selenium) linkage. Finally, the more interactions between the peptide and active site of MPO that occurs the lower numerical IC50 value of the peptide inhibitor.\nKYZ is […] in the presence of MPO, which subsequently decreases the production of hypochlorous acid. All MPO activities (i.e., hypochlorous acid production) were quantified by the 3,3′,5,5′-tetramethylbenzidine (TMB) assay. The tripeptide KXZ, requires amino acid #1 (AA1, K) to be a native amino acid or an artificial amino acid (aa) with a basic side-chain such as an amine functional group (e.g., Lysine (K)). Amino acid #2 (AA2, X) is a native or artificial amino acid that may contain a polar, non-polar, or aromatic amino acid."}, "[2]": {"system": "neonatal rat pups", "format": "in vivo", "details": "for weight gain: P3-P10", "protocol": "Data from lung sections and immunoblots from the samples were analyzed for statistical differences using GraphPad Prism version 8.4.3, for Windows (GraphPad Software, La Jolla, Calif.). Quantitative morphometric and cell count data are expressed as mean±SD scatter-plots adjacent to the representative images. Student t-test, or Mann-Whitney U test, was used for comparing two groups wherever appropriate. One-way analysis of variance with post-hoc Student-Newman-Keuls test was used when more than two groups of data were analyzed. Significant differences between groups were determined by either unpaired student's t-test or Mann-Whitney U test, depending on the distribution. Weight gain and survival data were analyzed using MedCalc Statistical Software version 15.2.1 (MedCalc Software bvba, Ostend, Belgium; http://www.medcalc.org). Kaplan-Meier survival curves were plotted using Kaplan-Meier tables constructed in GraphPad Prism. A p-value<0.05 was considered statistically significant."}, "[3]": {"molecular_target": "T1, MPO", "assay": "MPO oxidation of KYC to thiyl radical, ESR with DMPO", "format": "biochemical", "details": "MPO 120 nM, H2O2 50 μM, KYC 30 μM", "protocol": "FIG. 30. MPO Oxidizes KYC to a KYC Thiyl Radical That Thiylates HMGB1. (A) ESR spectrum of KYC thiyl S°-DMPO generated by an MPO reaction mixture containing MPO (120 nM), H2O2 (50 μM) and KYC (30 μM). (B) Streptavidin-affinity blot of KYC thiylated HMGB1 and MPO in a split sample, one half treated neat and other half treated with DTT (100 mM) to reduce disulfide bonds.\nThis spectrum is similar to the spectrum of DMPO-S◯-YC generated when the dipeptide YC was added to an MPO reaction mixture containing DMPO [34]."}, "[4]": {"system": "control mice", "assay": "Increasing single IP doses of KYC in control mice", "format": "in vivo, mouse", "details": "unpublished, personal observations"}, "[5]": {"system": "lung lysates of neonatal rat pups", "assay": "Hyperoxia-induced BPD in neonatal rat pups: immunoblot, affinity blot and pulldown analysis of lung lysates", "details": "for Nrf2 activation: lung lysates", "method": "The dose of KYC (5 mg/kg twice per day) was chosen based on experience treating chronic inflammation in other disease states (58, 60, 61). […] Equal volumes of PBS were injected i.p. into the remaining half of the pups as an injection control. Pups were euthanized on P10 with carbon dioxide and lungs removed en bloc. A small cut was created on the left atrium and ice-cold normal saline was gently infused through the right ventricle to flush blood from the lungs before inflation for histology or snap-frozen in liquid nitrogen for protein studies. Pups from at least three litters were used in each experiment.\nImmunoblot Analysis: Whole lung lysates were obtained by homogenizing in MOPS buffer (20 mM 3-N-morpholino-propanesulfonic acid, 2 mM EGTA, 5 mM EDTA, 30 mM NaF, 10 mM β-glycerophosphate, 10 mM Na pyrophosphate, 2 mM Na orthovanadate, 1 mM PMSF, 0.5% NP-40, 1% protease inhibitor cocktail, and 1% phosphatase inhibitor cocktails 2 and 3, pH 7.0) by Bullet Blender (Next Advance, Inc., Averill Park, N.Y.). For protein immunoblots, 30 μg of protein lysate was separated by SDS-PAGE, transferred to nitrocellulose membranes (0.22 μm), and then probed with the appropriate primary antibodies overnight at 4° C. on a continuously rocking platform. Signals were generated after incubation with horseradish peroxidase-conjugated goat anti-rabbit or anti-mouse IgG (1:8,000) using Western Bright ECL Chemiluminescent HRP Substrate (Advansta Inc., Menlo Park, Calif.). Integrated optical density (IOD) was calculated using ImageJ software and normalized to β-actin, a loading control."}, "[6]": {"details": "normoxic pups, KYC vs untreated"}, "[7]": {"details": "hyperoxic lungs, KYC vs PBS, P10"}, "[8]": {"details": "hyperoxic pups treated with KYC, P10, PBS 1.0±0.2"}, "[9]": {"details": "hyperoxic pups, KYC vs PBS, P10"}, "[10]": {"details": "lungs of hyperoxic pups, KYC vs PBS"}}, "note": "Several values for one entry are separate records, joined by “and”; a condition that tells them apart may be missing. Equal values may be shown once. Read-outs that look alike come from different tables or passages of the source. Peptide text beside a SMILES is read from it.", "data": [{"smiles": "CC(=O)N[C@@H](CCCCN)C(=O)N[C@@H](Cc1ccc(O)cc1)C(=O)N[C@@H](CS)C(N)=O", "note": "[KYC, N-acetyl lysyltyrosylcysteine amide] (Ac-Lys-Tyr-Cys-NH2)", "values": [{"measurement": "IC50 values compared with KLC", "setting": "[1]; pH values of 6.5, 7.4 and 8.0", "value": "superior"}, {"measurement": "IC50 values, inhibition of MPO HOCl production", "setting": "[1]; varied pH", "value": "changing of pH has limited effect on the IC50 values"}, {"measurement": "survival rate at P10", "setting": "[2]; hyperoxic (>90% O2) neonatal rat pups, KYC 5 mg/kg twice per day i.p., PBS group 82.8%", "value": "97.3% and ~98%"}, {"measurement": "survival to P10 (survival analysis)", "setting": "[2]; hyperoxic pups, KYC vs PBS", "value": "higher probability of surviving to P10"}, {"measurement": "weight gain", "setting": "[2]; hyperoxic pups, KYC vs PBS", "value": "time-dependent changes in weight gain were not significantly different"}, {"measurement": "survival to P10", "setting": "[2]; [6]", "value": "no significant differences in survival"}, {"measurement": "weight gain", "setting": "[2]; [6]", "value": "gained more weight than untreated normoxic pups"}, {"measurement": "ESR spectrum of MPO reaction mixture with DMPO", "setting": "[3]", "value": "four-line ESR spectrum corresponding to DMPO-SO-KYC"}, {"measurement": "single dose at which observable adverse effects were induced", "setting": "[4]", "value": 800, "unit": "mg/kg"}, {"measurement": "CD31 levels (immunoblot, relative)", "setting": "[5]; KYC-treated HOX group, P10, PBS-treated HOX 1.0±0.1", "value": "1.2±0.3"}, {"measurement": "Nrf2 levels (FIG. 22)", "setting": "[5]; hyperoxia exposed rat pup lungs", "value": "decreased Nrf2 levels"}, {"measurement": "NO2-Tyr levels (immunoblot, relative)", "setting": "[5]; hyperoxia pups, KYC 5 mg/kg twice per day i.p., P10, PBS 1.0±0.1", "value": "0.6±0.2"}, {"measurement": "MPO levels (immunoblot, relative)", "setting": "[5]; hyperoxia pups, KYC 5 mg/kg twice per day i.p., P10, PBS 1.0±0.3", "value": "0.6±0.1"}, {"measurement": "cell death in lungs (FIG. 20)", "setting": "[5]; hyperoxia-exposed rat pup lungs", "value": "reduces cell death"}, {"measurement": "reduction of Cl-Tyr formation", "setting": "[5]; [7]", "value": "approximately 27%"}, {"measurement": "reduction of MPO protein", "setting": "[5]; [7]", "value": "approximately 50%"}, {"measurement": "reduction of NO2-Tyr", "setting": "[5]; [7]", "value": "approximately 32%"}, {"measurement": "TLR4 expression in lungs (immunoblot, relative)", "setting": "[5]; hyperoxic pups treated with KYC, P10, PBS 1.0±0.1", "value": "0.8±0.2"}, {"measurement": "HMGB1 levels in lungs (immunoblot, relative)", "setting": "[5]; [8]", "value": "0.6±0.2"}, {"measurement": "RAGE expression in lungs (immunoblot, relative)", "setting": "[5]; [8]", "value": "0.5±0.2"}, {"measurement": "HMGB1 isoform in lung lysates (non-acetylated vs lysyl-acetylated)", "setting": "[5]; hyperoxic pups, KYC vs PBS", "value": "shifted the HMGB1 in lung lysates from the non-acetylated (HMGB1) to the lysyl-acetylated (Ac-HMGB1) isoform"}, {"measurement": "reduction of pulmonary Cox1", "setting": "[5]; hyperoxic pups, KYC vs PBS", "value": "20-30%"}, {"measurement": "reduction of pulmonary Cox2", "setting": "[5]; hyperoxic pups, KYC vs PBS", "value": "60-70%"}, {"measurement": "decrease of HMGB1 levels in lung homogenates/lysates", "setting": "[5]; [9]", "value": "approximately 38%"}, {"measurement": "increase of CD31 (endothelial cells)", "setting": "[5]; [9]", "value": "approximately 23%"}, {"measurement": "reduction of RAGE expression", "setting": "[5]; [9]", "value": 60, "unit": "%"}, {"measurement": "sulfonyl HMGB1 levels", "setting": "[5]; hyperoxic pups, relative to PBS-treated", "value": "increased sulfonyl HMGB1 levels"}, {"measurement": "S-glutathionylation of Keap1", "setting": "[5]; lung lysates from hyperoxic pups", "value": "increased"}, {"measurement": "HMGB1 association with TLR4 (HMGB1 pulldown)", "setting": "[5]; lung lysates from hyperoxic pups, KYC vs PBS", "value": "decreased HMGB1 association with TLR4"}, {"measurement": "B-KYC thiylation of Keap1", "setting": "[5]; lung lysates from hyperoxic pups, KYC P2-P9 then once B-KYC 5 mg/kg", "value": "increased B-KYC thiylation of Keap1"}, {"measurement": "Nrf2 activation", "setting": "[5]; hyperoxic pups", "value": "increased Nrf2 activation in lung lysates from hyperoxic pups"}, {"measurement": "Nrf2 activation", "setting": "[5]; normoxic pups", "value": "increased Nrf2 activation in lung lysates"}, {"measurement": "GST expression", "setting": "[5]; [10]", "value": "increased"}, {"measurement": "HMGB1 association with RAGE (HMGB1 pulldown)", "setting": "[5]; [10]", "value": "reduced"}, {"measurement": "HO-1 expression", "setting": "[5]; [10]", "value": "increased"}, {"measurement": "Trx expression", "setting": "[5]; [10]", "value": "increased"}]}]}
